Test results: patent publication US11370774B2, “Substituted benzofuran, benzopyrrole, benzothiophene, and structurally related complement inhibitors” (BioCryst Pharmaceuticals, Inc., priority 2018, dated 2022)

Molecular target: Factor D (Homo sapiens (Human), UniProt P00746)
Test: Factor D esterolytic assay (Z-Lys-SBzl substrate, DTNB, 405 nm)
Type: biochemical
Conditions: Z-Lys-SBzl 1.29 mM, pH 7.5, 10% DMSO, tested a minimum of three times, read-out: Measured Ki (IC50) Value for Compounds: IC50
Experimental: The IC50 value of a compound (i.e., the concentration of the compound that inhibits 50% of the enzymatic activity) was calculated according to the procedure reported in U.S. Pat. No. 6,653,340 B1, e.g., column 74 (incorporated by reference).
Specifically, the compounds were dissolved in a stock solution of DMSO at 10.0 or 100 mM. A portion of this stock solution was added to assay buffer in a final volume of 50 μL. Controls included buffer alone and enzyme solutions to which DMSO was added. Substrate was added to the reaction wells immediately or after incubation at room temperature. The reaction rates were measured spectrophotometrically by the generation of product at 405 nm for 600 sec. Background absorbance at 690 nm was measured and subtracted from the absorbance at 405 nm for each well.
The reaction rate for enzyme alone was compared to the rate of enzyme in the presence of inhibitor and the percent inhibition was calculated as shown below: Percent Inhibition=[Rate without inhibitor−Rate with inhibitor)/(Rate without inhibitor)]×100 Factor D Esterolytic Assay:
An established esterolytic assay for the measurement of Factor D activity and inhibition of Factor D activity was used (Kam, C. M.; McRae, B. J.; Harper, J. W.; Niemann, M. A.; Volanakis, J. E.; Powers, J. C. Human complement proteins D, C2, and B Active site mapping with peptide thioester substrates. J Biol. Chem. 1987, 262, 3444-3451). For this assay Z-Lys-SBzl, 1.29 mM (Kim, S.; Narayana, S. V. L; Volanakis, J. E. Mutational analysis of the substrate binding site of human complement Factor D. Biochemistry. 1994, 33, 14393-14399.) was used as the substrate for Factor D ([…]). Hydrolysis of this compound by Factor D liberated a free sulfhydryl group which is then reacted with 5,5′-dithiobis(2nitrobenzoic acid) producing an intense yellow color (Habeeb, A. F. S. A. Reaction of protein sulfhydryl groups with Ellman's Reagent. Methods in Enzymol. 1976, 25, 457-464). The assays were performed in 96 well microtiter plates and rates of hydrolysis were monitored at 405 nm on a Biotek Synergy H1 plate reader. Hydrolysis rates were reported as change in mOD/min. The assay was conducted in 100 mM HEPES, 500 mM NaCl, pH 7.5 containing 10% DMSO in a final volume of 50 μL per well.
An IC50, a compound concentration which inhibits 50% of the enzymatic activity, was calculated. Compounds in the examples were tested a minimum of three times.

Factor D, sequence (P00746 26-253): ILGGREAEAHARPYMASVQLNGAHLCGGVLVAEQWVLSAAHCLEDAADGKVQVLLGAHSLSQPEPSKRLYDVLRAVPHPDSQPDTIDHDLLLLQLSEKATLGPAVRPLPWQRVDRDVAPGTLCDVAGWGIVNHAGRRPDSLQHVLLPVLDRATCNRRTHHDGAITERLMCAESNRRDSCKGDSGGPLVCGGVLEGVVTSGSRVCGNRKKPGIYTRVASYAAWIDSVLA

| SMILES | IC50 [nM] |
| --- | --- |
| NCc1cccc(-c2cc(C(=O)Nc3ccccc3CC(=O)O)cc3nn(CC4CC4)cc23)c1 [Compound 11b, 2-(2-(4-(3-(aminomethyl)phenyl)-2-(cyclopropylmethyl)-2H-indazole-6-carboxamido)phenyl)acetic acid] | < 1000 |
| NCc1nccc(-c2cc(COc3ccccc3CC(=O)O)cc3[nH]ccc23)c1F [Compound 12c, 2-(2-((4-(2-(aminomethyl)-3-fluoropyridin-4-yl)-1H-indol-6-yl)methoxy)phenyl)acetic acid] | < 1000 |
| NCc1cccc(-c2cc(C(=O)Nc3ccccc3CC(=O)O)cc3cccnc23)c1 [Compound 13c, 2-(2-(8-(3-(aminomethyl)phenyl)quinoline-6-carboxamido)phenyl)acetic acid] | 1000 to 10000 |
| CCOC(=O)Cc1ccccc1NC(=O)c1cc(-c2cccc(CN)c2)c2cc[nH]c2n1 [Compound 14c, ethyl 2-(2-(4-(3-(aminomethyl)phenyl)-1H-pyrrolo[2,3-b]pyridine-6-carboxamido)phenyl)acetate] | > 10000 |
| NCc1cccc(-c2nc(C(=O)Nc3ccccc3CC(=O)O)nc3c2ccn3CC2CC2)c1 [Compound 16i, 2-(2-(4-(3-(aminomethyl)phenyl)-7-(cyclopropylmethyl)-7H-pyrrolo[2,3-d]pyrimidine-2-carboxamido)phenyl)acetic acid] | < 1000 |
| NCc1cccc(-c2cc(C(=O)Nc3ccccc3CC(=O)O)cc3ccccc23)c1 [Compound 18f, 2-(2-(4-(3-(aminomethyl)phenyl)-2-naphthamido)phenyl)acetic acid] | < 1000 |
| NCc1cccc(-c2cc(C(=O)Nc3ccccc3CC(=O)O)c3ncnn3c2)c1 [Compound 20e, 2-(2-(6-(3-(aminomethyl)phenyl)-[1,2,4]triazolo[1,5-a]pyridine-8-carboxamido)phenyl)acetic acid] | > 10000 |
| NCc1cccc(-c2cc(COc3ccccc3CC(=O)O)cc3ccoc23)c1 [Compound 23e, 2-(2-((7-(3-(aminomethyl)phenyl)benzofuran-5-yl)methoxy)phenyl)acetic acid] | < 1000 |
| NCc1cccc(-c2nc(COc3ccccc3CC(=O)O)nc3c2ccn3CC2CC2)c1 [Compound 26d, 2-(2-((4-(3-(aminomethyl)phenyl)-7-(cyclopropylmethyl)-7H-pyrrolo[2,3-d]pyrimidin-2-yl)methoxy)phenyl)acetic acid] | < 1000 |
| NCc1cccc(-c2cc(C(=O)Nc3ccccc3CC(=O)O)c3nccn3n2)c1 [Compound 27f, 2-(2-(6-(3-(aminomethyl)phenyl)imidazo[1,2-b]pyridazine-8-carboxamido)phenyl)acetic acid] | > 10000 |
| NCc1cccc(-c2nc(C(=O)Nc3ccccc3CC(=O)O)cc3ccoc23)c1 [Compound 28d, 2-(2-(7-(3-(aminomethyl)phenyl)furo[2,3-c]pyridine-5-carboxamido)phenyl)acetic acid] | < 1000 |
| NCc1cccc(-c2nc(C(=O)Nc3ccccc3CC(=O)O)nc3ccsc23)c1 [Compound 31f, 2-(2-(4-(3-(aminomethyl)phenyl)thieno[3,2-d]pyrimidine-2-carboxamido)phenyl)acetic acid] | < 1000 |
| NCc1cccc(-c2nc(C(=O)Nc3ccccc3CC(=O)O)nc3sccc23)c1 [Compound 32h, 2-(2-(4-(3-(aminomethyl)phenyl)thieno[2,3-d]pyrimidine-2-carboxamido)phenyl)acetic acid] | < 1000 |
| C[C@@H](N)c1cccc(-c2nc(C(=O)Nc3ccccc3CC(=O)O)c3cccn3n2)c1F [Compound 33f, (R)-2-(2-(2-(3-(1-aminoethyl)-2-fluorophenyl)pyrrolo[2,1-f][1,2,4]triazine-4-carboxamido)phenyl)acetic acid] | < 1000 |

Other lines, results leading:

| IC50 [nM] | SMILES |
| --- | --- |
| 1000 to 10000 | NCc1cccc(-c2cc(C(=O)Nc3ccccc3CC(=O)O)nc3[nH]ccc23)c1 [Compound 14d, 2-(2-(4-(3-(aminomethyl)phenyl)-1H-pyrrolo[2,3-b]pyridine-6-carboxamido)phenyl)acetic acid] |
| > 10000 | CCOC(=O)Cc1ccccc1NC(=O)c1cc(-c2cccc(CN)c2)c2occc2c1 [Compound 15c, ethyl 2-(2-(7-(3-(aminomethyl)phenyl)benzofuran-5-carboxamido)phenyl)acetate] |
| < 1000 | NCc1cccc(-c2cc(C(=O)Nc3ccccc3CC(=O)O)cc3ccoc23)c1 [Compound 15d, 2-(2-(7-(3-(aminomethyl)phenyl)benzofuran-5-carboxamido)phenyl)acetic acid] |
| > 10000 | NCc1cccc(-c2cc(C(=O)Nc3ccccc3CC(=O)O)cn3cnnc23)c1 [Compound 17c, 2-(2-(8-(3-(aminomethyl)phenyl)-[1,2,4]triazolo[4,3-a]pyridine-6-carboxamido)phenyl)acetic acid] |
| < 1000 | NCc1cc(F)cc(-c2cc(C(=O)Nc3ccccc3CC(=O)O)cc3[nH]ccc23)c1 [Compound 19c, 2-(2-(4-(3-(aminomethyl)-5-fluorophenyl)-1H-indole-6-carboxamido)phenyl)acetic acid] |
| < 1000 | NCc1cc(F)cc(-c2nc(C(=O)Nc3ccccc3CC(=O)O)c3cccn3n2)c1 [Compound 21d, 2-(2-(2-(3-(aminomethyl)-5-fluorophenyl)pyrrolo[2,1-f][1,2,4]triazine-4-carboxamido)phenyl)acetic acid] |
| < 1000 | NCc1cccc(-c2cc(COc3ccccc3CC(=O)O)cc3oc(Cl)cc23)c1F [Compound 24b, 2-(2-((4-(3-(aminomethyl)-2-fluorophenyl)-2-chlorobenzofuran-6-yl)methoxy)phenyl)acetic acid] |
| 1000 to 10000 | CCOC(=O)Cc1ccccc1OCc1nc(-c2cccc(CN)c2)nn2cccc12 [Compound 25c, ethyl 2-(2-((2-(3-(aminomethyl)phenyl)pyrrolo[2,1-f][1,2,4]triazin-4-yl)methoxy)phenyl)acetate] |
| 1000 to 10000 | C[C@H](N)c1cccc(-c2nc(C(=O)Nc3ccccc3CC(=O)O)c3cccn3n2)c1 [Compound 29d, (S)-2-(2-(2-(3-(1-aminoethyl)phenyl)pyrrolo[2,1-f][1,2,4]triazine-4-carboxamido)phenyl)acetic acid] |
| > 10000 | Cc1nc2cc(C(=O)Nc3ccccc3CC(=O)O)cc(-c3cccc(CN)c3)c2n1C [Compound 30d, 2-(2-(7-(3-(aminomethyl)phenyl)-1,2-dimethyl-1H-benzo[d]imidazole-5-carboxamido)phenyl)acetic acid] |
| < 1000 | NCc1cccc(-c2nc(C(=O)Nc3ccccc3CC(=O)O)c3cccn3n2)c1F [Compound 34f, 2-(2-(2-(3-(aminomethyl)-2-fluorophenyl)pyrrolo[2,1-f][1,2,4]triazine-4-carboxamido)phenyl)acetic acid] |
| 1000 to 10000 | NCc1cccc(-c2nc(C(=O)Nc3ccccc3CC(=O)O)cc3ccncc23)c1 [Compound 35f, 2-(2-(1-(3-(aminomethyl)phenyl)-2,7-naphthyridine-3-carboxamido)phenyl)acetic acid] |
| < 1000 | NCc1cccc(-c2nc(C(=O)Nc3ccccc3CC(=O)O)nc3ccoc23)c1 [Compound 36h, 2-(2-(4-(3-(aminomethyl)phenyl)furo[3,2-d]pyrimidine-2-carboxamido)phenyl)acetic acid] |
| < 1000 | NCc1cccc(-c2cc(C(=O)Nc3ccccc3CC(=O)O)cc3[nH]ccc23)c1F [Compound 37c, 2-(2-(4-(3-(aminomethyl)-2-fluorophenyl)-1H-indole-6-carboxamido)phenyl)acetic acid] |
| < 1000 | NCc1coc2c(-c3cc(COc4ccccc4CC(=O)O)cc4ccoc34)cccc12 [Compound 38f, 2-(2-((3′-(aminomethyl)-[7,7′-bibenzofuran]-5-yl)methoxy)phenyl)acetic acid] |
| < 1000 | Cc1ccc(CC(=O)O)c(NC(=O)c2nc(-c3cccc(CN)c3)nn3cccc23)c1 [Compound 39d, 2-(2-(2-(3-(aminomethyl)phenyl)pyrrolo[2,1-f][1,2,4]triazine-4-carboxamido)-4-methylphenyl)acetic acid] |
| < 1000 | Cc1ccc(S(=O)(=O)n2ccc3c(-c4cccc(CN)c4)cc(COc4ccccc4CC(=O)O)cc32)cc1 [Compound 40e, 2-(2-((4-(3-(aminomethyl)phenyl)-1-tosyl-1H-indol-6-yl)methoxy)phenyl)acetic acid] |
| < 1000 | NCc1cccc(-c2nc(C(=O)Nc3sccc3CC(=O)O)cc3ccoc23)c1 [Compound 41d, 2-(2-(7-(3-(aminomethyl)phenyl)furo[2,3-c]pyridine-5-carboxamido)thiophen-3-yl)acetic acid] |
